Where a SMILES comes first, the peptide text is derived from it. [ ]: non-standard residue; d: D form. The star is where a group is joined. Tyr(3-NO2) = N[C@@H](Cc1ccc(O)c([N+](=O)[O-])c1)C(=O)O; Boc = CC(C)(C)OC(=O)*
What was measured:
[1] = molecular target: T1, recombinant active human PAI-1 (Homo sapiens (Human), UniProt P05121); assay: Fluorometric IC50 plate assay (PAI-1 inhibition of uPA, Z-Gly-Gly-Arg-AMC); assay type: biochemical; conditions: in vitro, PAI-1 1 nM, uPA 2.5 nM, pH 7.8, 10% DMSO; ND = not detected, e.g. no inhibition
[2] = molecular target: T1, recombinant active human PAI-1; assay: pH dependence of PAI-1 inhibition, fluorogenic uPA (or tPA) assay; assay type: biochemical; conditions: for PAI-1 inhibitory efficacy (in words): pH 7.5 (FIG. 8), additional experiments; for effect of pH on PAI-1 inhibition (in words): pH 6.5 to 8.5
[3] = molecular target: T2, PAI-1 (Homo sapiens (Human), UniProt P05121); assay: Surface plasmon resonance, loss of PAI-1 binding to immobilized anhydrotrypsin; conditions: PAI-1 2 nM preincubated with compound, SPR; read-out: Apparent KD (nM) ± SEM
Target sequence in this assay (P05121 24-402): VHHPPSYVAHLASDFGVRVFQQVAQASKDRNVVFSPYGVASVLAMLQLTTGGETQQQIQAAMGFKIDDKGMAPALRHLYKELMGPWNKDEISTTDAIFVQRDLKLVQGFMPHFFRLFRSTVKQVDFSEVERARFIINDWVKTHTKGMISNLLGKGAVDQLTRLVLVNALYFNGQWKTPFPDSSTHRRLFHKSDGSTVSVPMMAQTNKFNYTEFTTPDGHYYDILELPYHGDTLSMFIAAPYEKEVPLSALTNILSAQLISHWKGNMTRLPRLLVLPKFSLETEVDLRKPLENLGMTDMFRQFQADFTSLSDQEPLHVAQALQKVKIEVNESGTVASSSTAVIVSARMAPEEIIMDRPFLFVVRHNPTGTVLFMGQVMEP

[4] = molecular target: active mouse PAI-1 (Mus musculus (Mouse), UniProt P22777); assay: Ex vivo plasma Luminex assay, mouse plasma spiked with active mouse PAI-1; assay type: biochemical; conditions: mouse plasma spiked with active mouse PAI-1 3-4 ng/mL
[5] = molecular target: T1, recombinant active human PAI-1; assay: β-trypsin screening assay for PAI-1 inhibitors; assay type: biochemical; conditions: 10 μM compound; hit = more than 3 standard deviations above control;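 further: fluorogenic readout with PAI-1 and β-trypsin at 10:1 molar ratio, untreated PAI-1 wells set as 100% PAI-1 activity and β-trypsin alone as 0%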
[6] = test system: PAI-1 null mice; assay: Oral PAI-039 in PAI-1 null mice, lipid analysis; assay type: in vivo, mouse; conditions: two weeks in chow
[7] = test system: PAI-1; assay: PAI-1 activity assay in ex vivo plasma with and without vitronectin; assay type: biochemical; conditions: plasma of PAI-1 null or PAI-1/vitronectin null mice, 20 nM PAI-1
[8] = test system: C57BL/6J and 129 mice; assay: Oral PAI-039 in chow for two weeks, plasma PAI-1 activity and lipid profiles; assay type: in vivo, mouse
[9] = molecular target: T2, PAI-1; conditions: cited from earlier work
Target sequence in this assay (P05121 24-402, species assumed): as the sequence (P05121 24-402) above

[10] = molecular target: T1, recombinant active human PAI-1; assay: High throughput uPA chromogenic screen for PAI-1 inactivators; assay type: biochemical; conditions: 10 μM compound; hit = more than 3 standard deviations above control
[11] = molecular target: T1, recombinant active human PAI-1; assay: Chromogenic uPA assay of PAI-1 inhibition (pGlu-Gly-Arg pNA); assay type: biochemical
[12] = molecular target: PAI-1/vitronectin (Homo sapiens (Human), UniProt P05121); assay: Inhibition of PAI-1 in the presence of vitronectin, fluorogenic uPA assay; assay type: biochemical
[13] = molecular target: anti-thrombin III (ATIII) (Homo sapiens (Human), UniProt P01008); assay: Specificity assay on anti-thrombin III (thrombin activity); assay type: biochemical; conditions: pH 7.5 or pH 8.5, with heparin
[14] = molecular target: T2, PAI-1; assay: SDS-PAGE analysis of PAI-1:plasminogen activator complex formation; assay type: biochemical; conditions: tannic acid 0-100 μM, uPA or tPA
Target sequence in this assay (P05121 24-402): as above

[15] = molecular target: recombinant active human PAI-1 preincubated with vitronectin (Homo sapiens (Human), UniProt P05121); assay: Inhibition of vitronectin-bound PAI-1 by tannic acid, chromogenic uPA assay; assay type: biochemical; conditions: 5-fold molar excess of vitronectin
Sequence of recombinant active human PAI-1 preincubated with vitronectin (P05121 24-402): as above
Sequence of recombinant active human PAI-1 preincubated with vitronectin (P04004 20-478 partner): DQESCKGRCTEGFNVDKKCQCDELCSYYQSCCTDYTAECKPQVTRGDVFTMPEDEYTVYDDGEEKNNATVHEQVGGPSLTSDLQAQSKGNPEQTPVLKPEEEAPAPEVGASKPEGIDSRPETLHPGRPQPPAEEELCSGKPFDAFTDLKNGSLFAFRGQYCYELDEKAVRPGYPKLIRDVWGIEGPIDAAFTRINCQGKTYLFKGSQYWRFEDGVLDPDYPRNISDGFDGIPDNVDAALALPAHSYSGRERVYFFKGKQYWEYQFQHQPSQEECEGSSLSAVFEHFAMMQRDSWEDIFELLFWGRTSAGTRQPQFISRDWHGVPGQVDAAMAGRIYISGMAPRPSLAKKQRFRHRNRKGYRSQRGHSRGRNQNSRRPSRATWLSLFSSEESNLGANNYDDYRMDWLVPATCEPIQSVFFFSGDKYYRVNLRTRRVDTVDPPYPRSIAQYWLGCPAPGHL

T1 sequence (P05121 24-402): as the sequence (P05121 24-402) above
Sequence of PAI-1/vitronectin (P05121 24-402): as above
Sequence of active mouse PAI-1 (P22777 23-402): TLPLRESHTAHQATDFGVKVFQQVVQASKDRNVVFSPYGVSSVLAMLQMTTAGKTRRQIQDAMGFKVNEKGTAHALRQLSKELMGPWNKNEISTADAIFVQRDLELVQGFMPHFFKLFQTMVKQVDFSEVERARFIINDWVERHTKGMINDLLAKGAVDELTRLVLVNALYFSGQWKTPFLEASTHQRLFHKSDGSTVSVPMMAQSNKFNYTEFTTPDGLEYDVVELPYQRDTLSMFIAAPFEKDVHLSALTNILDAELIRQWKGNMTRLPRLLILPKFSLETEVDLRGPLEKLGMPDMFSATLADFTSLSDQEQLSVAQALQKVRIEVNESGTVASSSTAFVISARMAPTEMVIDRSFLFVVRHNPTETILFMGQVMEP
Sequence of anti-thrombin III (ATIII) (P01008 33-464, species assumed): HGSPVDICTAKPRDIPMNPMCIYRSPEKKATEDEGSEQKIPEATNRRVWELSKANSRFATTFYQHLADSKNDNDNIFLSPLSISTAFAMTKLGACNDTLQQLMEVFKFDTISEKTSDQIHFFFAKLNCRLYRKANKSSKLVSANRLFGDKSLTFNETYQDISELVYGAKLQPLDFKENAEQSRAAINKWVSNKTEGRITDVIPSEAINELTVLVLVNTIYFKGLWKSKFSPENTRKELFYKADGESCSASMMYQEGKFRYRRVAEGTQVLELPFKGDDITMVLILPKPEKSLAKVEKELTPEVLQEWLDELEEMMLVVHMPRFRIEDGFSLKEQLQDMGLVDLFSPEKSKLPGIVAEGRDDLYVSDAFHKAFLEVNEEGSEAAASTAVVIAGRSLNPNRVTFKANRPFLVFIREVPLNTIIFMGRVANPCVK

## O=C(OCCOCCOCCOCCOC(=O)c1cc(O)c(O)c(O)c1)c1cc(O)c(O)c(O)c1 [CDE-011]
[1]
  IC50: 338 µM
[2]
  PAI-1 inhibitory efficacy (in words): effective PAI-1 inhibitors

## CC(C)(C)OC(=O)N[C@@H](Cc1ccc(O)c([N+](=O)[O-])c1)C(=O)O [CDE-028]
[1]
  IC50: 386 µM
[2]
  effect of pH on PAI-1 inhibition (in words): increased with increasing pH
  PAI-1 inhibitory efficacy (in words): effective inhibitors of PAI-1

## O=C(NCCCNC(=O)c1cc(O)c(O)c(O)c1)c1cc(O)c(O)c(O)c1 [CDE-070]
[1]
  IC50: 269 µM

## O=C(Oc1ccccc1OC(=O)c1cc(O)c(O)c(O)c1)c1cc(O)c(O)c(O)c1 [CDE-056]
[1]
  IC50: 2.96 µM
[3]
  Kd: 51 ± 6 nM

## O=C(OCCOCCOCCOC(=O)c1cc(O)c(O)c(O)c1)c1cc(O)c(O)c(O)c1 [CDE-012]
[1]
  IC50: 196 µM
[2]
  PAI-1 inhibitory efficacy (in words): effective PAI-1 inhibitors

## CC(C)(C)OC(=O)NCC(COC(=O)c1cc(O)c(O)c(O)c1)OC(=O)c1cc(O)c(O)c(O)c1 (stereo not drawn) [CDE-075]
[1]
  IC50: 0.07 µM

## O=C(NCCNC(=O)c1ccc(O)c([N+](=O)[O-])c1)c1ccc(O)c([N+](=O)[O-])c1 [CDE-060]
[1]
  IC50: 236 µM

## O=C(OCCOC(=O)c1ccc(O)cc1O)c1ccc(O)cc1O [CDE-051]
[1]
  IC50: 28.7 µM

## O=S(=O)(NNS(=O)(=O)c1ccc(O)c(O)c1)c1ccc(O)c(O)c1 [CDE-059]
[1]
  IC50: 0.09 µM
[4]
  IC50: 973 µM

## O=C(O[C@H]1CC[C@H](OC(=O)c2cc(O)c(O)c(O)c2)CC1)c1cc(O)c(O)c(O)c1 [CDE-062]
[1]
  IC50: 332 µM

## COc1cc(C(=O)N(C)CCN(C)C(=O)c2cc(OC)c(O)c(OC)c2)cc(OC)c1O [CDE-064]
[1]
  IC50: 2200 µM

## O=C(O[C@H]1CCCC[C@H]1OC(=O)c1cc(O)c(O)c(O)c1)c1cc(O)c(O)c(O)c1 [CDE-031]
[1]
  IC50: 0.28 µM
[3]
  Kd: 31 ± 2 nM
[2]
  effect of pH on PAI-1 inhibition (in words): increased with increasing pH
  PAI-1 inhibitory efficacy (in words): effective inhibitors of PAI-1

## CCOC(=O)[C@H](Cc1ccc(O)c([N+](=O)[O-])c1)NC(=O)[C@H](Cc1ccc(O)c([N+](=O)[O-])c1)NC(=O)OC(C)(C)C [CDE-033] (Boc-[Tyr(3-NO2)]-[Tyr(3-NO2)]-OEt)
[1]
  IC50: 246 µM

## Oc1c(Cl)cc(Cl)c(Cl)c1Cc1c(O)c(Cl)cc(Cl)c1Cl [hexachlorophene]
[5]
  screening hit: restoration of β-trypsin activity: demonstrate PAI-1 inhibitor activity
[2]
  effect of pH on PAI-1 inhibition (in words): did not improve at pH 8.5 compared to pH 7.5

## COc1cc(C(=O)N2CCN(C(=O)c3cc(OC)c(O)c(OC)c3)CC2)cc(OC)c1O [CDE-065]
[1]
  IC50: 423 µM

## O=C(O[C@H]1CC[C@@H](OC(=O)c2cc(O)c(O)c(O)c2)CC1)c1cc(O)c(O)c(O)c1 [CDE-061]
[1]
  IC50: 0.05 µM

## O=S(=O)(NNS(=O)(=O)c1ccc(O)cc1)c1ccc(O)cc1 [CDE-072]
[1]
  IC50: 104 µM

## O=C(OCCOC(=O)c1cccc(OC(=O)c2cc(O)c(O)c(O)c2)c1)c1cccc(OC(=O)c2cc(O)c(O)c(O)c2)c1 [CDE-041]
[1]
  IC50: 47.9 µM

## O=C(O)C(=O)c1cn(Cc2ccccc2)c2ccc(-c3ccc(OC(F)(F)F)cc3)cc12 [PAI-039, tiplaxtinin]
[6]
  effect on metabolism (lipid profile) in PAI-1 null mice (in words): no significant effect
[7]
  PAI-1 inhibition in plasma with or without vitronectin (in words): only inhibitory in plasma that lacks vitronectin
[8]; 129
  HDL cholesterol increase: 45%
  VLDL decrease: 35%
[8]; C57BL/6J
  HDL cholesterol increase: 11%
  VLDL decrease: 49%
[8]; C57BL/6J mice, 5 mg PAI-039/gram of chow, two weeks
  plasma level of active PAI-1: 0.37 ± 0.08 ng/mL
[8]; average of C57BL/6J and 129
  VLDL average decrease: 42%
[8]; average of both strains
  HDL higher, average increase for C57BL/6J and 129 mice: approximately 28%
[9]
  inhibition of vitronectin bound PAI-1 (in words): does not inhibit vitronectin bound PAI-1

## O=C(OCCCOC(=O)c1cc(O)c(O)c(O)c1)c1cc(O)c(O)c(O)c1 [CDE-013]
[1]
  IC50: 7.85 µM
[2]
  PAI-1 inhibitory efficacy (in words): effective PAI-1 inhibitors

## O=C(NCCNC(=O)c1cc(O)c(O)c(O)c1)c1cc(O)c(O)c(O)c1 [CDE-044]
[1]
  IC50: 900 µM

## O=S(=O)(c1ccc(O)c(O)c1)N1CCCCN1S(=O)(=O)c1ccc(O)c(O)c1 [CDE-074]
[1]
  IC50: 1.71 µM

## CN(N(C)S(=O)(=O)c1ccc(O)c(O)c1)S(=O)(=O)c1ccc(O)c(O)c1 [CDE-068]
[1]
  IC50: 32.7 µM

## O=C(Oc1cc(O)cc2c1C[C@@H](OC(=O)c1cc(O)c(O)c(O)c1)[C@@H](c1cc(O)c(O)c(O)c1)O2)c1cc(O)c(O)c(O)c1 [epigallocatechin 3,5 digallate]
[10]
  screening hit: restoration of uPA activity: positive hits

## CCN(CCN(CC)S(=O)(=O)c1ccc(OC)c(OC)c1)S(=O)(=O)c1ccc(OC)c(OC)c1 [CDE-030]
[2]
  effect of pH on PAI-1 inhibition (in words): increased with increasing pH
  PAI-1 inhibitory efficacy (in words): effective inhibitors of PAI-1

## COc1cc(C(=O)OCCOC(=O)c2cc(OC)c(O)c(OC)c2)cc(OC)c1O [CDE-069]
[1]
  IC50: 562 µM

## O=C(c1cc(O)c(O)c(O)c1)N1CCN(C(=O)c2cc(O)c(O)c(O)c2)CC1 [CDE-055]
[1]
  IC50: 27.5 µM

## O=C(O)c1cc(O)c(O)c(O)c1 [gallic acid]
[11]; FIG. 2
  fold less active toward PAI-1 than tannic acid: approximately 1000 fold
[11]; other data (not shown)
  fold less active toward PAI-1 than tannic acid: up to 4000 fold
[2]
  effect of pH on PAI-1 inhibition (in words): increased with increasing pH to 8.5

## O=C(OCC(COC(=O)c1cc(O)c(O)c(O)c1)OC(=O)c1cc(O)c(O)c(O)c1)c1cc(O)c(O)c(O)c1 [CDE-082]
[3]
  Kd: 5.3 ± 0.2 nM

## CC(C)(C)OC(=O)N[C@@H](Cc1ccc(O)c([N+](=O)[O-])c1)C(=O)N[C@@H](Cc1ccc(O)c([N+](=O)[O-])c1)C(=O)O [CDE-035] (Boc-[Tyr(3-NO2)]-[Tyr(3-NO2)]-OH)
[1]
  IC50: 146 µM

## O=C(OCCOC(=O)c1cc(O)c(O)c(O)c1)c1cc(O)c(O)c(O)c1 [CDE-008]
[1]
  IC50: 0.37 µM
[3]
  Kd: 23 ± 1 nM
[12]; 200 nM vitronectin, pH 7.5 and pH 8.5
  inhibition of PAI-1 in the presence of vitronectin (in words): inhibits PAI-1 in the presence of vitronectin at both pH 7.5 and pH 8.5
[12]; at each pH (7.5 and 8.5)
  change of IC50 in the presence of vitronectin: 1 log value
[2]; pH 6.5
  IC50: 325 µM
[2]
  effect of pH on PAI-1 inhibition (in words): more effective inhibitor at pH 8.5 than at pH 7.5
[2]; pH 7.5
  IC50: 0.288 µM
[2]; pH 8.5
  IC50: 0.064 µM
[13]
  effect on ATIII activity (in words): no effect

## CC(C)(COC(=O)c1cc(O)c(O)c(O)c1)COC(=O)c1cc(O)c(O)c(O)c1 [CDE-067]
[1]
  IC50: 48.3 µM

## O=C(O[C@@H]1CCCC[C@H]1OC(=O)c1cc(O)c(O)c(O)c1)c1cc(O)c(O)c(O)c1 [CDE-034]
[1]
  IC50: 1.17 µM
[3]
  Kd: 67 ± 3 nM

## O=C(OCCOCCOC(=O)c1cc(O)c(O)c(O)c1)c1cc(O)c(O)c(O)c1 [CDE-009]
[1]
  IC50: 49.3 µM
[2]
  PAI-1 inhibitory efficacy (in words): effective PAI-1 inhibitors

## O=C(OC[C@H]1O[C@@H](OC(=O)c2cc(O)c(O)c(OC(=O)c3cc(O)c(O)c(O)c3)c2)[C@H](OC(=O)c2cc(O)c(O)c(OC(=O)c3cc(O)c(O)c(O)c3)c2)[C@@H](OC(=O)c2cc(O)c(O)c(OC(=O)c3cc(O)c(O)c(O)c3)c2)[C@@H]1OC(=O)c1cc(O)c(O)c(OC(=O)c2cc(O)c(O)c(O)c2)c1)c1cc(O)c(O)c(OC(=O)c2cc(O)c(O)c(O)c2)c1 [Tannic acid, tannic acid]
[5]
  screening hit: restoration of β-trypsin activity: demonstrate PAI-1 inhibitor activity
[11]; some experiments (not shown in FIG. 2)
  IC50: 2.5 µM
[14]
  effect on PAI-1:PA complex formation (in words): converts PAI-1 to a substrate for PAs
[10]
  screening hit: restoration of uPA activity: positive hits
[15]
  inhibition of vitronectin-bound PAI-1 (in words): inhibited PAI-1 activity even when bound to vitronectin
[2]; pH 6.5
  IC50: 7.36 µM
[2]
  effect of pH on PAI-1 inhibition (in words): improved by increasing pH
[2]; pH 7.5
  IC50: 7.15 µM
[2]; pH 8.5
  IC50: 0.0091 µM
[4]
  IC50: 9.68 µM

## O=S(=O)(NCCNS(=O)(=O)c1ccc(O)c(O)c1)c1ccc(O)c(O)c1 [CDE-021]
[1]
  IC50: 450 µM
[2]
  effect of pH on PAI-1 inhibition (in words): increased with increasing pH
  PAI-1 inhibitory efficacy (in words): effective inhibitors of PAI-1

## O=C(O[C@@H]1CCC[C@H](OC(=O)c2cc(O)c(O)c(O)c2)C1)c1cc(O)c(O)c(O)c1 [CDE-057]
[1]
  IC50: 195 µM

## CCN(CCN(CC)S(=O)(=O)c1ccc(O)c(O)c1)S(=O)(=O)c1ccc(O)c(O)c1 [CDE-032]
[1]
  IC50: 10.2 µM
[2]
  effect of pH on PAI-1 inhibition (in words): increased with increasing pH
  PAI-1 inhibitory efficacy (in words): effective inhibitors of PAI-1
